Consider 2 compounds from PMC2193169 (The Journal of Experimental Medicine, 2000).

In one assay the target is T1, Cathepsin F (Cat F) (Mus musculus, UniProt Q9R013).
T1 sequence (Q9R013 249-462): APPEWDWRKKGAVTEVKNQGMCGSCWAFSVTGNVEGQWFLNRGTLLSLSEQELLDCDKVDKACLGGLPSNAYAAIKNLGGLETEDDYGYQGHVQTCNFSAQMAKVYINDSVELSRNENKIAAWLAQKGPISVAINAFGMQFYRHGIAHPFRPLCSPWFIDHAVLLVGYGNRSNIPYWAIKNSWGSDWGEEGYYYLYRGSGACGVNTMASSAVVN
The format is cell-based.

The target in another assay is Cathepsin Z (Cat Z) (Mus musculus, UniProt Q9WUU7). Briefly: competition of […]-JPM565 active-site labeling in transfected […] cell lysate. The format is biochemical.
Sequence of Cathepsin Z (Cat Z) (Q9WUU7 64-306): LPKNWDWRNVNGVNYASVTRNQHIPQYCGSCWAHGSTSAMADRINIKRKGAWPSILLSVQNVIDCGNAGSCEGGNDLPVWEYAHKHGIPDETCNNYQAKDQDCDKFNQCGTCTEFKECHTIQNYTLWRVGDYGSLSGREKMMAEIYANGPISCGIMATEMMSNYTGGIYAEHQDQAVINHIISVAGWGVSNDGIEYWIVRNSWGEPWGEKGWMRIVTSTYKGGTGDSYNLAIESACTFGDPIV

In the case of `CC(C)C[C@H](NC(=O)N1CCOCC1)C(=O)N[C@H](/C=C/S(=O)(=O)c1ccccc1)CCc1ccccc1` [LHVS], on Cathepsin F (Cat F), the complete inhibition is 1 (complete inhibition) μM. Regarding `CC(C)C[C@H](NC(=O)[C@H]1O[C@@H]1C(=O)O)C(=O)NCCCCNC(=N)N` [E64], the “inhibits at this concentration” value at Cathepsin Z (Cat Z) is reported as 20 (inhibits at this concentration) μM.
